This experiment deals with Escherichia coli strain ATCC25922. Briefly: standard microdilution assay to determine minimum inhibitory concentrations (MICs). The format is cell-based. Conditions: for E. coli ATCC25922 MIC: Escherichia coli strain ATCC25922, microdilution; for MIC: Escherichia coli, ATCC25922, Escherichia coli strain ATCC25922, microdilution, read-out: E. coli ATCC25922 MIC. How it is done: Minimum inhibitory concentrations (MICs) are determined by the microdilution method, typically in a final volume of 100 microliters, according to protocols outlined by The Clinical and Laboratory Standards Institute [CLSI; formerly the National Committee for Clinical Laboratory Standards (NCCLS)]. See CLSI: Methods for dilution antimicrobial susceptibility tests for bacteria that grow aerobically; approved standard-fifth edition. Wayne, Pa.: NCCLS; 2000. The assays can be also be performed in microtiter trays according to conventional methodologies as published by the CLSI. See CLSI. Methods for Dilution Antimicrobial Susceptibility Tests for Bacteria That Grow Aerobically; Approved Standard—Seventh Edition. CLSI Document M7-A7 [ISBN 1-56238-587-9] CLSI, 940 West Valley Road, Suite 1400, Wayne Pa. 19087-1898 USA, 2006).
The compounds of the present invention were tested for antimicrobial activity. The compounds were run against Escherichia coli strain ATCC25922 using a standard microdilution assay to determine minimum inhibitory concentrations (MICs). […] A “N/A” means that data is unavailable. It will be recognized by one skilled in the art that the compounds can be assessed against other bacterial organisms and that the presentation of data for activity against Escherichia coli is illustrative and in no way is intended to limit the scope of the present invention. The compounds of the present invention can be assayed against a range of other microorganisms depending upon the performance activity desired to be gathered. Furthermore, the “+”, “−”, and “N/A” representation and the selection of a cutoff value of 16 micrograms/ml is also illustrative and in no way is intended to limit the scope of the present invention.
For orientation: In broth dilution the organism is exposed to a series of concentrations in liquid medium.

Some results are limits rather than exact numbers.

Consider `N#CCCCN(C1CCNCC1)S(=O)(=O)c1ccc(-c2cc3cn(-c4ccc(CNCCCNC(=N)N)cc4)c(=O)nc3[nH]2)cc1` [Compound 842], for which the “E. coli ATCC25922 MIC” value is reported as “+ (a “+” indicates that the compound has an MIC value of 16 micrograms/ml or less)”.

For `N=C(N)NCCCNCc1ccc(-c2cn3cc(-c4ccc(C(=O)NCCO)cc4)[nH]c3nc2=O)cc1` [Compound 828], the “E. coli ATCC25922 MIC” value is reported as “+ (a “+” indicates that the compound has an MIC value of 16 micrograms/ml or less)”.

In the case of `N=C(N)NCCCNC(c1ccc(-n2cc3cc(-c4cc(CCCCN)cc(OC(F)(F)F)c4)[nH]c3nc2=O)cc1)C(F)(F)F` (stereo not shown) [Compound 2081a], the “E. coli ATCC25922 MIC” value was “+ (a “+” indicates that the compound has an MIC value of 16 micrograms/ml or less)”.

In the case of `N=C(N)NCCCNCc1ccc(-n2cc3cc(-c4cccc(SCCCN)c4)[nH]c3nc2=O)cc1` [Compound 1405], the “E. coli ATCC25922 MIC” value was “+ (a “+” indicates that the compound has an MIC value of 16 micrograms/ml or less)”.

In general, MIC refers to the lowest concentration found to suppress growth. With `NCCOc1cccc(-c2cc3cn(-c4ccc(CN)cc4)c(=O)nc3[nH]2)c1` [Compound 1144], the MIC is more than 16 µg/mL.

For `N=C(N)NCCCNCc1ccc(-n2cc3cc(CCS(=O)(=O)N(CCCc4ccccc4)C4CCNCC4)[nH]c3nc2=O)cc1` [Compound 990], the “E. coli ATCC25922 MIC” value is on record as “+ (a “+” indicates that the compound has an MIC value of 16 micrograms/ml or less)”.

On to `Cn1c(CCCN(C2CCNCC2)S(=O)(=O)c2ccc(-c3cc4cn(-c5ccc(CNCCCNC(=N)N)cc5)c(=O)nc4[nH]3)cc2)nc2ccccc21` [Compound 841], for which the “E. coli ATCC25922 MIC” value was “+ (a “+” indicates that the compound has an MIC value of 16 micrograms/ml or less)”.

Regarding `NCCCNCc1ccc(-c2cn3cc(-c4ccc(C(=O)NC56CC7CC(CC(C7)C5)C6)cc4)[nH]c3nc2=O)cc1` [Compound 717], the MIC was more than 16 µg/mL.

Consider `NCc1ccc(-n2cc3cc(-c4ccc(S(=O)(=O)N(CCCN5CCOCC5)C5CCNCC5)cc4)[nH]c3nc2=O)cc1` [Compound 1038], for which the minimal inhibitory concentration (MIC) is more than 16 µg/mL.

`N=C(N)NCCCNCc1ccc(-c2cn3cc(-c4ccc(C(=O)N5CCS(=O)(=O)CC5)cc4)[nH]c3nc2=O)cc1` [Compound 700]: the minimum inhibitory concentration (MIC) was more than 16 µg/mL.

Take `N=C(N)NCCCNCc1ccc(-n2cc3cc(-c4ccc(S(=O)(=O)N(Cc5csc(-c6ccc(C(F)(F)F)cc6)n5)C5CCNCC5)cc4)[nH]c3nc2=O)cc1` [Compound 786]: the “E. coli ATCC25922 MIC” value is recorded as “+ (a “+” indicates that the compound has an MIC value of 16 micrograms/ml or less)”.

With `N=C(N)NCCCNCc1ccc(-n2cc3cc(-c4cc(OC(F)(F)F)cc(C(O)CCN)c4)[nH]c3nc2=O)cc1` (stereo not shown) [Compound 2061a], the “E. coli ATCC25922 MIC” value was “+ (a “+” indicates that the compound has an MIC value of 16 micrograms/ml or less)”.

Regarding `NC1CCN(Cc2ccc(-n3cc4cc(-c5ccc(S(=O)(=O)NC6CCNCC6)cc5F)[nH]c4nc3=O)cc2)CC1` [Compound 263], the minimum inhibitory concentration (MIC) was less than 16 µg/mL.

Turning to `N=C(N)NCCCNCc1ccc(-n2cc3cc(C4CCN(CCCCN)C4)[nH]c3nc2=O)cc1` (stereo not shown) [Compound 1437], the “E. coli ATCC25922 MIC” value is recorded as “+ (a “+” indicates that the compound has an MIC value of 16 micrograms/ml or less)”.

Turning to `CC(CN)CN1CCC(c2cc3cn(-c4ccc(CNCCCNC(=N)N)cc4)c(=O)nc3[nH]2)C1` (mixture of isomers) [Compound 2016a], the “E. coli ATCC25922 MIC” value was “+ (a “+” indicates that the compound has an MIC value of 16 micrograms/ml or less)”.

`NCCCNCc1ccc(-c2cn3cc(-c4ccc(C(=O)NC5CCOCC5)cc4)[nH]c3nc2=O)cc1` [Compound 799]: the minimal inhibitory concentration (MIC) is more than 16 µg/mL.

On to `NCCCNCc1ccc(-n2cc3cc(-c4cc(C(=O)Nc5ccc(F)cc5)cc(N5CCNCC5)c4)[nH]c3nc2=O)cc1` [Compound 760], for which the MIC was less than 16 µg/mL.

On to `N=C(N)NCCCNCc1ccc(-n2cc3cc(CCS(=O)(=O)CCN)[nH]c3nc2=O)cc1` [Compound 1189], for which the minimal inhibitory concentration (MIC) was less than 16 µg/mL.

As to `NCCCN(CCCN)Cc1ccc(-n2cc3cc(-c4ccc(S(=O)(=O)N(Cc5ccc(SC(F)(F)F)cc5)C5CCNCC5)cc4)[nH]c3nc2=O)cc1` [Compound 236], the MIC was less than 16 µg/mL.

As to `N=C(N)NCCC(NCc1ccc(-n2cc3cc(-c4ccc(S(=O)(=O)NC5CNC5)cc4)[nH]c3nc2=O)cc1)C(F)(F)F` (stereo not shown) [Compound 1415], the “E. coli ATCC25922 MIC” value is recorded as “+ (a “+” indicates that the compound has an MIC value of 16 micrograms/ml or less)”.

For `N=C(N)NCCCNCc1ccc(-c2cn3nc(-c4ccc(F)cc4)[nH]c3nc2=O)cc1` [Compound 663], the minimum inhibitory concentration (MIC) was more than 16 µg/mL.

With `N=C(N)NCCCNCc1ccc(-n2cc3cc(-c4cc(OCC(F)CN)cc(-c5cccnc5)c4)[nH]c3nc2=O)cc1` (stereo not shown) [Compound 2001a], the “E. coli ATCC25922 MIC” value is “− (a “−” indicates that the compound has an MIC value greater than 16 micrograms/ml)”.

Turning to `NCCc1cn(CCCCO)c2cc(-n3cc4cc(CCS(=O)(=O)C5CCNCC5)[nH]c4nc3=O)ccc12` [Compound 1239], the minimal inhibitory concentration (MIC) was more than 16 µg/mL.

Consider `N=C(N)NCCCNCc1ccc(-n2cc3cc(-c4cccc(OCC5CNCCO5)c4)[nH]c3nc2=O)cc1` (stereo not shown) [Compound 1452], for which the “E. coli ATCC25922 MIC” value was “+ (a “+” indicates that the compound has an MIC value of 16 micrograms/ml or less)”.

As for `N=C(N)NCCCNCc1ccc(-n2cc3cc(-c4cccc(SCCN)c4)[nH]c3nc2=O)cc1` [Compound 1451], the “E. coli ATCC25922 MIC” value was “+ (a “+” indicates that the compound has an MIC value of 16 micrograms/ml or less)”.

As for `CN(Cc1cccnc1)C(=O)c1cc(-c2cc3cn(-c4ccc(CNCCCNC(=N)N)cc4)c(=O)nc3[nH]2)cc(N2CCNCC2)c1` [Compound 951], the “E. coli ATCC25922 MIC” value is given as “− (a “−” indicates that the compound has an MIC value greater than 16 micrograms/ml)”.

Regarding `NC1CCN(Cc2ccc(-n3cc4cc(-c5ccc(S(=O)(=O)N(CCCn6cnnc6)C6CCNCC6)cc5)[nH]c4nc3=O)cc2)C1` (stereo not shown) [Compound 1220], the “E. coli ATCC25922 MIC” value is “− (a “−” indicates that the compound has an MIC value greater than 16 micrograms/ml)”.

For the compound `N=C(N)NCCCNCc1ccc(-n2cc3cc(C4CCNC4)[nH]c3nc2=O)cc1` (stereo not shown) [Compound 1229], the MIC was less than 16 µg/mL.

With `NCc1ccc(-n2cc3cc(-c4ccc(S(=O)(=O)N(CCCC5CCCC5)C5CCNCC5)cc4)[nH]c3nc2=O)cc1` [Compound 946], the minimum inhibitory concentration (MIC) is more than 16 µg/mL.

In the case of `NC(=O)c1ccc(-n2cc3cc(-c4ccc(S(=O)(=O)N(CCCn5ccc(C(F)(F)F)n5)C5CCNCC5)cc4)[nH]c3nc2=O)cc1` [Compound 1116], the “E. coli ATCC25922 MIC” value is given as “− (a “−” indicates that the compound has an MIC value greater than 16 micrograms/ml)”.

Take `N=C(N)NCCCNCc1ccc(-n2cc3cc(CCN4CCS(=O)(=O)CC4)[nH]c3nc2=O)cc1` [Compound 785]: the MIC was more than 16 µg/mL.

For `NCCCNCc1ccc(-n2cc3cc(-c4ccccc4C(F)(F)F)[nH]c3nc2=O)cc1` [Compound 292], the minimum inhibitory concentration (MIC) is more than 16 µg/mL.

Consider `N=C(N)NCCCN1CC=C(c2cn3cc(-c4ccc(F)cc4)[nH]c3nc2=O)CC1` [Compound 566], for which the minimal inhibitory concentration (MIC) was more than 16 µg/mL.

In the case of `N=C(N)NCCCNCc1ccc(-n2cc3cc(-c4cccc(S(=O)(=O)N(CCCN5CCCCC5)C5CCNCC5)c4)[nH]c3nc2=O)cc1` [Compound 1027], the “E. coli ATCC25922 MIC” value was “+ (a “+” indicates that the compound has an MIC value of 16 micrograms/ml or less)”.

With `N=C(N)NCCCNCc1ccc(-c2cn3cc(-c4ccc(S(=O)(=O)N5CCN(C(=O)OCc6ccccc6)CC5)cc4)[nH]c3nc2=O)cc1` [Compound 790], the “E. coli ATCC25922 MIC” value was “+ (a “+” indicates that the compound has an MIC value of 16 micrograms/ml or less)”.

On to `N=C(N)NCCCNCc1ccc(-n2cc3cc(-c4cc(C(=O)N5CCC(C(N)=O)CC5)cc(N5CCNCC5)c4)[nH]c3nc2=O)cc1` [Compound 911], for which the “E. coli ATCC25922 MIC” value is “− (a “−” indicates that the compound has an MIC value greater than 16 micrograms/ml)”.

For the compound `NCCCN(CCCN)Cc1ccc(-n2cc3cc(-c4ccccc4C(F)(F)F)[nH]c3nc2=O)cc1F` [Compound 318], the minimal inhibitory concentration (MIC) is more than 16 µg/mL.

As to `CS(=O)(=O)NCc1cc(CCCCN)cc(-c2cc3cn(-c4ccc(CNCCCNC(=N)N)cc4)c(=O)nc3[nH]2)c1` [Compound 2090a], the “E. coli ATCC25922 MIC” value was “+ (a “+” indicates that the compound has an MIC value of 16 micrograms/ml or less)”.

For `COc1ccc(CCN(C2CCNCC2)S(=O)(=O)c2cccc(-c3cc4cn(-c5ccc(CNCCCN=C(N)N)cc5)c(=O)nc4[nH]3)c2)cc1` [Compound 1226], the “E. coli ATCC25922 MIC” value is on record as “+ (a “+” indicates that the compound has an MIC value of 16 micrograms/ml or less)”.

For `NCCCNCc1ccc(-n2cc3cc(-c4ccc(C(NC5CCNCC5)C(F)(F)F)cc4)[nH]c3nc2=O)cc1` (stereo not shown) [Compound 918], the “E. coli ATCC25922 MIC” value is given as “+ (a “+” indicates that the compound has an MIC value of 16 micrograms/ml or less)”.

`N=C(N)NCCCNCc1ccc(-c2cn3nc(C4CC4)[nH]c3nc2=O)cc1` [Compound 661]: the MIC is more than 16 µg/mL.

For `N=C(N)NCCCNS(=O)(=O)c1ccc(-n2cc3cc(-c4ccc(S(=O)(=O)NC5CCNCC5)cc4)[nH]c3nc2=O)cc1` [Compound 1103], the “E. coli ATCC25922 MIC” value is listed as “+ (a “+” indicates that the compound has an MIC value of 16 micrograms/ml or less)”.

As to `CC(=O)NCCN(C1CCNCC1)S(=O)(=O)c1cccc(-c2cc3cn(-c4ccc(CN)cc4)c(=O)nc3[nH]2)c1` [Compound 1224], the minimal inhibitory concentration (MIC) was more than 16 µg/mL.

Values taken from patent US9193731B2, “Antimicrobial compounds and methods of making and using the same” (Melinta Therapeutics, Inc., priority 2009, dated 2015).
